Measurements taken from patent US9308215B2, “Avermectins and milbemycins as anti-mycobacterial agents” (priority 2013, dated 2016).
In brackets after ≈: the same amount, converted by molar mass. Read-outs that look alike come from different tables or passages of the source.

Tests used:
[1] = tested on: E. coli; assay: microbe, parasite or virus in culture; assay type: cell-based, Escherichia coli; conditions: strain O157:H7, WT
[2] = tested on: A. baumannii; assay: microbe, parasite or virus in culture; assay type: cell-based, Acinetobacter baumannii; conditions: strain ATCC 1960, WT
[3] = tested on: P. aeruginosa; assay: microbe, parasite or virus in culture; assay type: cell-based, Pseudomonas aeruginosa; conditions: strain PA01 (H103), WT
[4] = tested on: S. lividans; assay: microbe, parasite or virus in culture; assay type: cell-based, Streptomyces lividans; conditions: strain 1326, WT
[5] = tested on: R. jostii; assay: microbe, parasite or virus in culture; assay type: cell-based, Rhodococcus jostii; conditions: strain RHA1, WT
[6] = tested on: K. rhizophila; assay: microbe, parasite or virus in culture; assay type: cell-based, Kocuria rhizophila; conditions: WT
[7] = tested on: S. aureus; assay: microbe, parasite or virus in culture; assay type: cell-based, Staphylococcus aureus; conditions: strain ATCC 25923, WT
[8] = tested on: M. smegmatis; assay: microbe, parasite or virus in culture; assay type: cell-based, Mycobacterium smegmatis; conditions: strain mc^2155, WT
[9] = tested on: M. bovis BCG; assay: microbe, parasite or virus in culture; assay type: cell-based, Mycobacterium bovis; conditions: strain BCG Pasteur, WT
[10] = tested on: M. tuberculosis; assay: microbe, parasite or virus in culture; assay type: cell-based, Mycobacterium tuberculosis
[11] = tested on: M. aurum; assay: MIC against mycobacterial species; assay type: cell-based; conditions: M. aurum
[12] = tested on: M. avium; assay: MIC against mycobacterial species; assay type: cell-based, Mycobacterium avium
[13] = tested on: M. chelonae; assay: MIC against mycobacterial species; assay type: cell-based; conditions: M. chelonae
[14] = tested on: M. gordonae; assay: MIC against mycobacterial species; assay type: cell-based; conditions: M. gordonae 324
[15] = tested on: M. intracellulare; assay: MIC against mycobacterial species; assay type: cell-based
[16] = tested on: M. microti; assay: microbe, parasite or virus in culture; assay type: cell-based
[17] = tested on: M. phlei; assay: MIC against mycobacterial species; assay type: cell-based; conditions: M. phlei
[18] = tested on: M. tuberculosis H37Rv and mc25857 (an MDR isolate); assay type: cell-based, Mycobacterium tuberculosis; conditions: in vitro against M. tuberculosis, survival kinetics
[19] = tested on: M. tuberculosis Erdman; assay: Mouse in vivo TB model, acute (GKO); conditions: for Toxicity / Log10 cfu reduction (lungs): Acute (GKO), Erdman; for Log10 cfu reduction (lungs): 50/35/15 H2O/PEG300/PG
Protocol: Mice were low-dose aerosol infected (50-100 bacteria). In the acute model, immune compromised mice were left untreated for 13 days to allow the infection to become established before 9 days of consecutive drug therapy was initiated. Drugs were administered by oral gavage. Log10 cfu reductions in the lungs were compared to untreated group. Rifampin was included as an internal control. An ordinary one-way ANOVA Bonferroni's multiple comparisons test was used to calculate p values. A p value<0.05 indicates statistically significant differences compared to the control group (vehicle).
Using an acute TB model, immune compromised mice were low-dose aerosol infected and then left untreated for 13 days to allow the infection to become established before 9 days of consecutive drug therapy was initiated. Drugs were administered orally and Log10 cfu reductions in the lungs were compared to and untreated group (vehicle) to rifampin treatment. […] Rifampicin was included as control.

[20] = tested on: M. tuberculosis Erdman; assay: Mouse in vivo TB model, chronic (Balb/C); conditions: 10 mg/kg bw PO
[21] = tested on: representative Gram-positive and Gram-negative bacteria; assay type: cell-based
[22] = Horses, 200 μg/kg oral; cited from earlier work
[23] = 0.2 mg/kg oral, cited from earlier work
[24] = cited from earlier work; for Cmax / AUC / T½: Humans
[25] = Dogs, 250 μg/kg oral; cited from earlier work
[26] = mice; cited from earlier work
[27] = single dose, clinical studies, cited from earlier work
[28] = ivermectin: extra-label use; selamectin, moxidectin: therapeutic doses; cited from earlier work
[29] = tested on: M. tuberculosis; conditions: Jayaram et al. 2003; cited from earlier work
[30] = less sensitive strains CI15072, CI12081, BC-MDR2, BC-DS4 and BC-DS5

Question: For `CC[C@H](C)[C@H]1O[C@]2(CC[C@@H]1C)C[C@@H]1C[C@@H](C/C=C(\C)[C@@H](O[C@H]3C[C@H](OC)[C@@H](O[C@H]4C[C@H](OC)[C@@H](O)[C@H](C)O4)[C@H](C)O3)[C@@H](C)/C=C/C=C3\CO[C@@H]4[C@H](O)C(C)=C[C@@H](C(=O)O1)[C@]34O)O2` [Ivermectin], which “In vitro MIC90” value [1] is on record?
Answer: Its value is greater than 256 µg/mL.

Question: What about the “In vitro MIC90” value [2] of the same compound?
Answer: The value was greater than 256 µg/mL.

Question: And the “In vitro MIC90” value [3]?
Answer: The value was greater than 256 µg/mL.

Question: And the “In vitro MIC90” value [4]?
Answer: The value was greater than 256 µg/mL.

Question: What about the “In vitro MIC90” value [5] of the same compound?
Answer: The value was greater than 256 µg/mL.

Question: What about the “In vitro MIC90” value [6] of the same compound?
Answer: Its value is greater than 256 µg/mL.

Question: What about the “In vitro MIC90” value [7] of the same compound?
Answer: Its value is greater than 256 µg/mL.

Question: What about the “In vitro MIC90” value [8] of the same compound?
Answer: Its value is 8 µg/mL.

Question: And the “In vitro MIC90” value [9]?
Answer: Its value is 4 µg/mL.

Question: And the MIC50 [10, 30]?
Answer: The MIC50 was less than 8 µg/mL.

Question: What about the MIC90 [10, 30] of the same compound?
Answer: The MIC90 was 24 µg/mL (≈ 27.4 µM).

Question: What about the “In vitro MIC90” value ([10]; strain 1254, WT) of the same compound?
Answer: Its value is 8 µg/mL.

Question: What about the “In vitro MIC90” value ([10]; strain BC-DS1 (drug-susceptible)) of the same compound?
Answer: Its value is 4 to 16 µg/mL.

Question: And the “In vitro MIC90” value ([10]; strain BC-DS3 (drug-susceptible))?
Answer: The value was 8 to 16 µg/mL.

Question: And the “value in parentheses in MIC90 column (MIC50)” value (from here on “value in parentheses”) ([10]; strain BC-DS4)?
Answer: The value was 8 µg/mL.

Question: And the “In vitro MIC90” value ([10]; strain BC-DS4 (drug-susceptible))?
Answer: Its value is 64 µg/mL.

Question: What about the “value in parentheses” value ([10]; strain BC-DS5) of the same compound?
Answer: The value was 8 µg/mL.

Question: What about the “In vitro MIC90” value ([10]; strain BC-DS5 (drug-susceptible)) of the same compound?
Answer: The value was greater than 128 µg/mL.

Question: And the “value in parentheses” value ([10]; strain BC-MDR2)?
Answer: The value was 8 µg/mL.

Question: What about the “In vitro MIC90” value ([10]; strain CDC 1551, WT) of the same compound?
Answer: The value was 4 to 8 µg/mL.

Question: What about the “In vitro MIC90” value ([10]; strain Erdman, WT) of the same compound?
Answer: Its value is 8 µg/mL.

Question: And the “In vitro MIC90” value ([10]; strain H37Rv, WT)?
Answer: The value was 6 µg/mL.

Question: What about the MIC [11] of the same compound?
Answer: Its MIC is 2 µg/mL (≈ 2.29 µM).

Question: And the MIC ([12]; M. avium 702)?
Answer: The MIC was greater than 256 µg/mL.

Question: And the MIC ([12]; M. avium 715)?
Answer: The MIC was greater than 256 µg/mL.

Question: And the MIC ([12]; M. avium ATCC 25291)?
Answer: The MIC was greater than 128 µg/mL.

Question: What about the MIC [13] of the same compound?
Answer: Its MIC is 4 µg/mL (≈ 4.57 µM).

Question: What about the MIC [14] of the same compound?
Answer: Its MIC is 4 µg/mL (≈ 4.57 µM).

Question: And the MIC ([15]; M. intracellulare 1403 ATCC35761)?
Answer: Its MIC is 4 µg/mL (≈ 4.57 µM).

Question: And the MIC ([15]; M. intracellulare 1403 Trudeau)?
Answer: The MIC was 4 µg/mL (≈ 4.57 µM).

Question: What about the MIC ([15]; M. intracellulare D673) of the same compound?
Answer: Its MIC is 8 µg/mL (≈ 9.14 µM).

Question: And the MIC ([15]; M. intracellulare FM)?
Answer: The MIC was 8 µg/mL (≈ 9.14 µM).

Question: What about the MIC ([16]; M. microti 1601) of the same compound?
Answer: Its MIC is 4 µg/mL (≈ 4.57 µM).

Question: What about the MIC ([16]; M. microti 1608) of the same compound?
Answer: The MIC was 256 µg/mL (≈ 293 µM).

Question: And the MIC [17]?
Answer: The MIC was 32 µg/mL (≈ 36.6 µM).

Question: And the bactericidal or bacteriostatic [18]?
Answer: Its bactericidal or bacteriostatic is “Bactericidal”.

Question: What about the “activity in vivo in acute TB model” value ([19]; 5 and 10 mg/kg doses, oral, Erdman 107) of the same compound?
Answer: The value was “did not show activity”.

Question: And the Toxicity ([19]; 5 mg/kg bw PO)?
Answer: Its Toxicity is “None”.

Question: And the “Log10 cfu reduction (lungs)” value ([19]; 5 mg/kg bw PO)?
Answer: Its value is 0.32 Log10 cfu.

Question: What about the Toxicity ([19]; 10 mg/kg bw PO) of the same compound?
Answer: The Toxicity was “None”.

Question: And the “Log10 cfu reduction (lungs)” value ([19]; 10 mg/kg bw PO)?
Answer: Its value is 0.4 Log10 cfu.

Question: What about the Toxicity [20] of the same compound?
Answer: Its Toxicity is “None”.

Question: And the “Log10 cfu reduction (lungs)” value ([20]; 50/35/15 H2O/PEG300/PG)?
Answer: Its value is −0.11 Log10 cfu.

Question: What about the Inhibitory effects [21] of the same compound?
Answer: The Inhibitory effects was “not observed”.

Question: What about the AUC [22] of the same compound?
Answer: The AUC was 3184 ng·h/mL.

Question: And the Cmax [22]?
Answer: Its Cmax is 44 ng/mL.

Question: What about the T½ [22] of the same compound?
Answer: The T½ was 20 h.

Question: And the Cmax ([23]; Mouse (lung))?
Answer: The Cmax was 20 ng/mL.

Question: And the AUC ([23]; Mouse (plasma))?
Answer: The AUC was 573 ng·h/mL.

Question: And the Cmax ([23]; Mouse (plasma))?
Answer: The Cmax was 20 ng/mL.

Question: What about the T½ ([23]; Mouse (plasma)) of the same compound?
Answer: Its T½ is 9.3 h.

Question: And the Cmax ([24]; 12 mg (165 μg/kg) oral)?
Answer: The Cmax was 47 ng/mL.

Question: What about the AUC ([24]; 30 mg (347-541 μg/kg) oral) of the same compound?
Answer: The AUC was 2819 ng·h/mL.

Question: What about the Cmax ([24]; 30 mg (347-541 μg/kg) oral) of the same compound?
Answer: The Cmax was 85 ng/mL.

Question: What about the T½ ([24]; 30 mg (347-541 μg/kg) oral) of the same compound?
Answer: The T½ was 19 h.

Question: And the AUC ([24]; 30 mg (fed) oral)?
Answer: Its AUC is 4564 ng·h/mL.

Question: And the Cmax ([24]; 30 mg (fed) oral)?
Answer: Its Cmax is 260 ng/mL.

Question: What about the T½ ([24]; 30 mg (fed) oral) of the same compound?
Answer: Its T½ is 15 h.

Question: And the AUC ([24]; 90 mg (1031-1466 μg/kg) oral)?
Answer: Its AUC is 2910 ng·h/mL.

Question: And the Cmax ([24]; 90 mg (1031-1466 μg/kg) oral)?
Answer: The Cmax was 158 ng/mL.

Question: And the T½ ([24]; 90 mg (1031-1466 μg/kg) oral)?
Answer: The T½ was 19 h.

Question: What about the AUC ([24]; 120 mg (1404-2000 μg/kg) oral) of the same compound?
Answer: Its AUC is 4547 ng·h/mL.

Question: What about the Cmax ([24]; 120 mg (1404-2000 μg/kg) oral) of the same compound?
Answer: The Cmax was 247 ng/mL.

Question: What about the T½ ([24]; 120 mg (1404-2000 μg/kg) oral) of the same compound?
Answer: Its T½ is 19 h.

Question: And the plasma concentrations ([24]; healthy volunteers, 120 mg)?
Answer: The plasma concentrations was “ca. 0.25 μg/mL”.

Question: What about the “maximal concentration in plasma” value ([24]; standard dose of 12 mg) of the same compound?
Answer: Its value is “ca. 50 ng/mL”.

Question: And the AUC [25]?
Answer: Its AUC is 5600 ng·h/mL.

Question: What about the Cmax [25] of the same compound?
Answer: Its Cmax is 132 ng/mL.

Question: And the T½ [25]?
Answer: The T½ was 80 h.

Question: What about the LD50 [26] of the same compound?
Answer: Its LD50 is 25 mg/kg body weight.

Question: What about the “dose reported safe in humans” value [27] of the same compound?
Answer: Its value is no more than 120 mg.

Question: And the “dose reported safe in humans” value ([27]; listed as ivermectin)?
Answer: The value was 120 mg.

Question: What about the “toxicity in dogs lacking MDR1 P-glycoprotein / homozygous MDR1 mutation” value [28] of the same compound?
Answer: Its value is “severe signs of neurotoxicity”.

Question: With `CO[C@H]1/C=C/O[C@@]2(C)Oc3c(C)c(O)c4c(O)c(c(/C=N/N5CCN(C)CC5)c(O)c4c3C2=O)NC(=O)/C(C)=C\C=C\[C@H](C)[C@H](O)[C@@H](C)[C@@H](O)[C@@H](C)[C@H](OC(C)=O)[C@@H]1C` [Rifampin] as the compound, how does the “AUC24/MIC value required for 1 log 10 CFU/ml reduction, relative to avermectins and milbemycins” value [29] read?
Answer: The value was “more than 10 times higher”.
